Reference: patent US10077258B2, “Substituted pyrimidine compounds as phosphatidylinositol 3-kinase delta inhibitor and use thereof” (NANJING SANHOME PHARMACEUTICAL CO., LTD., priority 2015, dated 2018)

How the values were obtained:
PI3Kα = target: T1, PI3Kα (Homo sapiens, UniProt P42336); assay: In vitro kinase activity (LabChip EZ Reader mobility shift), PI3Kα; assay type: biochemical; conditions: kinase subtype PI3Kα (p110α/p85a)
T1 construct: purchased Invitrogen PV4788
Procedure: (§1) Compounds: the compounds prepared in above examples of the present invention, each of which was prepared to a concentration of 10 mM in DMSO and diluted to […], 100 nM, 10 nM, 1 nM, 0.1 nM, 0.01 nM successively.
(§2) Reagents: PI3Kα (p110α(p85a), purchased from Invitrogen, Cat.No. PV4788; PIK3Cδ (p110δ/p85a), purchased from Millipore, Cat.No. 14-604-K; PIK3Cβ (p110β), purchased from Millipore, Cat.No. 14-603-K; PIK3Cγ (pp110γ), purchased from Invitrogen, Cat.No. PR8641C; DMSO, purchased from Sigma; EDTA, purchased from Sigma; 1× kinase buffer (50 mM HEPES, pH 7.5, 0.0015% Brij-35, 10 mM MgCl2, 2 mM DTT), which was prepared before use; termination solution (100 mM HEPES, pH 7.5, 0.015% Brij-35, 0.2% Coating Reagent#3, 50 mM EDTA), which was prepared before use.
(§3) Instruments: LabChip EZ Reader purchased from Caliper, USA.
(§4) 2.1 10 μl solution of each concentration of each compound was placed into 96-well plate and 90 μl of 1× kinase buffer was added. DMSO control group and control group without kinase activity were set up, which all contained 10 μl DMSO and 90 μl of 1× kinase buffer. Each group was mixed well at room temperature for 10 min, and then 5 μl of each group was transferred to a 384-well plate.
(§5) 2.2 Kinases were dissolved in 1× kinase buffer to prepare a 2.5× kinase solution. 10 μl of 2.5× kinase solution was transferred to the 384-well plate containing compounds of different concentrations. 10 μl of 2.5× kinase solution was added to DMSO control group and 10 μl of 1× kinase buffer without kinase was added to control group without kinase activity. The plate was incubated at room temperature for 10 min.
(§6) 2.3 ATP and the polypeptide labeled with FAM were dissolved in 1× kinase buffer to prepare 2.5× substrate solution. Then 10 μl of 2.5× substrate solution was transferred to the 384-well plate and incubated at 28° C. for 1 h.
(§7) 2.4 25 μl of termination solution was added to each well to terminate the reaction.
(§8) 2.5 The plate was placed on the LabChip EZ Reader to read the data of conversion rate and inhibitory rate (1%) was calculated according to formula: I %=(Max−Com)/(Max−Min)×100, wherein Max was the conversion rate of DMSO control group, Min was the conversion rate of control group without kinase activity, Com was the conversion rate of compound treatment group. IC50 was fitted by XLfit processing of the data.

PI3Kβ = target: T2, PI3Kβ (Homo sapiens, UniProt P42338); assay: In vitro kinase activity (LabChip EZ Reader mobility shift), PI3Kβ; assay type: biochemical; conditions: kinase subtype PI3Kβ (p110β)
T2 construct: purchased Millipore 14-603-K
Procedure: as §1, §2, §3, §4, §5, §6, §7, §8

SU-DHL-5 lymphoma cells = assay: In vitro cell activity, CellTiter-Glo cell viability, SU-DHL-5; assay type: cell-based; conditions: Homo sapiens, SU-DHL-5 lymphoma cell line, 72 h
Procedure: Compounds: the compounds prepared in above examples of the present invention, each of which was prepared to a concentration of 10 mM in DMSO and diluted 3 times to 20000.00 nM, 6666.67 nM, 2222.22 nM, 740.74 nM, 246.91 nM, 27.43 nM, 9.14 nM, 3.05 nM successively.
The lymphoma cell lines SU-DHL-5 and SU-DHL-6 were purchased from the American Type Culture Collection (ATCC).
Reagents: PRMI-1640, purchased from Invitrogen (USA); FBS, purchased from Invitrogen (USA); EDTA, purchased from Sigma (USA); CellTiter-Glo® Luminescent Cell Viability Assay Kit, purchased from Progema (USA); Backseal membrane, purchased from Perkin Elmer (USA).
The cells were thawed in a 37° C. water bath and then transferred to 15 ml preheated medium. The cells were centrifuged at 1000 rpm for 5 min and the medium was discarded. The cells were resuspended in 15 ml fresh medium and transferred to T75 culture flask and incubated in an incubator at 37° C. with 5% CO2. The medium was replaced with fresh medium 24 h later.
The resuscitated cells above were transferred to a 50 ml sterile centrifuge tube and centrifuged at 1000 rpm for 5 min. The medium was discarded, and the cells were dispersed uniformly and counted. The appropriate cell concentration was adjusted in 15 ml fresh medium and added to T75 culture flask. The flask was incubated in an incubator at 37° C. with 5% CO2.
When the cells in the T75 culture flask grew to 1×10^5˜1×10^6 cells/ml, the cells were resuspended with fresh medium (RPMI-1640+20% FBS) and counted. The resuspended cells were adjusted to the following eight concentrations: 1×10^4 cells/ml, 2×10^4 cells/ml, 3×10^4 cells/ml, 5×10^4 cells/ml, 8×10^4 cells/ml, 1×10^5 cells/ml, 1.5×10^5 cells/ml, and 2×10^5 cells/ml. The above cell suspensions were added to 96-well cell culture plate, 100 μl each well (1×10^3 cells/ml, 2×10^3 cells/ml, 3×10^3 cells/ml, 5×10^3 cells/ml, 8×10^3 cells/ml, 1×10^4 cells/ml, 1.5×10^4 cells/ml, and 2×10^4 cells/ml, respectively). Each concentration was done double in three plates. 72 h later, 100 μl CellTiter-Glo® Luminescent Cell Viability Assay buffer was added to test wells and shaken gently. 10 min later, the Assay plate was attached at the bottom by Backseal membrane and placed on Envison to detect the fluorescence reading. Cell survive (%) was calculated according to the formula: cell survive (%)=(Com−Min)/(Max−Min), wherein Max was the reading of solvent control group, Min was the reading of control group without cells, and Com was the reading of compound treatment group.

PI3Kδ = target: T3, PI3Kδ (Homo sapiens, UniProt O00329); assay: In vitro kinase activity (LabChip EZ Reader mobility shift), PI3Kδ; assay type: biochemical; conditions: for IC50: kinase subtype PI3Kδ (p110δ/p85a)
T3 construct: purchased Millipore 14-604-K
Procedure: as §1, §2, §3, §4, §5, §6, §7, §8

PI3Kγ = target: T4, PI3Kγ (Homo sapiens, UniProt P48736); assay: In vitro kinase activity (LabChip EZ Reader mobility shift), PI3Kγ; assay type: biochemical; conditions: kinase subtype PI3Kγ (p110γ)
T4 construct: purchased Invitrogen PR8641C
Procedure: as §1, §2, §3, §4, §5, §6, §7, §8

T1 sequence (P42336 whole entry): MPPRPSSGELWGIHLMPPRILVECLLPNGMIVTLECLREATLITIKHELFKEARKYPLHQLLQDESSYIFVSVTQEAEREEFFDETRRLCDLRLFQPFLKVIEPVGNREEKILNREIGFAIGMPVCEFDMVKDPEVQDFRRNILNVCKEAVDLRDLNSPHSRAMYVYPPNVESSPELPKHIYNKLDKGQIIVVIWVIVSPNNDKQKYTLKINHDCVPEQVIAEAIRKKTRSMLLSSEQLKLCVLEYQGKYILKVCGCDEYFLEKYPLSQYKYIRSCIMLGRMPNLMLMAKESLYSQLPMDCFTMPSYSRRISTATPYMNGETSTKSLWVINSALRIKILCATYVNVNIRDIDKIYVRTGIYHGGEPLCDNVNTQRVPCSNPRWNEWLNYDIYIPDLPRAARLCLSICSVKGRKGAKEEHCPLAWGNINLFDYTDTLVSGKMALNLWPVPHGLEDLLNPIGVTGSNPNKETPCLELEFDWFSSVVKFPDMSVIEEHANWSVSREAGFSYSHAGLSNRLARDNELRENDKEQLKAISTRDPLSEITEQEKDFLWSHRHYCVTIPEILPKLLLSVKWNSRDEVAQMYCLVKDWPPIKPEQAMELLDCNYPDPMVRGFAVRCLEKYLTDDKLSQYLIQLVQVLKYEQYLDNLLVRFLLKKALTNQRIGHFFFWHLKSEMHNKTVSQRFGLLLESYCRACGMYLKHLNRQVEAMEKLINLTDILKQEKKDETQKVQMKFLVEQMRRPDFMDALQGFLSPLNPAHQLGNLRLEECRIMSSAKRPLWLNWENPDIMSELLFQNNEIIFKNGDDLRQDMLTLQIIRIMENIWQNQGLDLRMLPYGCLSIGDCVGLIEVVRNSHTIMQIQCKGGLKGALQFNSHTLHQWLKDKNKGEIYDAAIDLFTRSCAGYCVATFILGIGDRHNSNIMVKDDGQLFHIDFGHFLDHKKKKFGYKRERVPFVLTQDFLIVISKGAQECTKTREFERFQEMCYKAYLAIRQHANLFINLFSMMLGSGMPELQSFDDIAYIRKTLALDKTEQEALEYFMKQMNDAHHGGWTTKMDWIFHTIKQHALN
T1 sequence (P27986 whole entry partner): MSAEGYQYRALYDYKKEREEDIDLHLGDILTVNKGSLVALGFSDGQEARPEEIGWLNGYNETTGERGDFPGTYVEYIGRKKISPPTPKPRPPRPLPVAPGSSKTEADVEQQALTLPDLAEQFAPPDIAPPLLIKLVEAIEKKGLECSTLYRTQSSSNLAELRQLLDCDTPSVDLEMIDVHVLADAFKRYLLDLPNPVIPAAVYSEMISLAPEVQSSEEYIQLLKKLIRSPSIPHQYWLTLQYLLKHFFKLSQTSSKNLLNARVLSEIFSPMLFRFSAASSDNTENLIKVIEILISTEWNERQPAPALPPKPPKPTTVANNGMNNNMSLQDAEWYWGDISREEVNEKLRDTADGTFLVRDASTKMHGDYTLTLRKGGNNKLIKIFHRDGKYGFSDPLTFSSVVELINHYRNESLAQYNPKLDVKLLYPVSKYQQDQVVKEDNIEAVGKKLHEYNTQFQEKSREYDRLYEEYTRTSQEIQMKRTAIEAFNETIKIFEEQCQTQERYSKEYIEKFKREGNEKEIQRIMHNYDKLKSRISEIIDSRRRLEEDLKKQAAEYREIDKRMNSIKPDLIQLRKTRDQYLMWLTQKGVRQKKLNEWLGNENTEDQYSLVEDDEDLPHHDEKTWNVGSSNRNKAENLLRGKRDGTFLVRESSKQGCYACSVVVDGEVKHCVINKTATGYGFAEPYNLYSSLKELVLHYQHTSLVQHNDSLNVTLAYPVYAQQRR
T2 sequence (P42338 whole entry): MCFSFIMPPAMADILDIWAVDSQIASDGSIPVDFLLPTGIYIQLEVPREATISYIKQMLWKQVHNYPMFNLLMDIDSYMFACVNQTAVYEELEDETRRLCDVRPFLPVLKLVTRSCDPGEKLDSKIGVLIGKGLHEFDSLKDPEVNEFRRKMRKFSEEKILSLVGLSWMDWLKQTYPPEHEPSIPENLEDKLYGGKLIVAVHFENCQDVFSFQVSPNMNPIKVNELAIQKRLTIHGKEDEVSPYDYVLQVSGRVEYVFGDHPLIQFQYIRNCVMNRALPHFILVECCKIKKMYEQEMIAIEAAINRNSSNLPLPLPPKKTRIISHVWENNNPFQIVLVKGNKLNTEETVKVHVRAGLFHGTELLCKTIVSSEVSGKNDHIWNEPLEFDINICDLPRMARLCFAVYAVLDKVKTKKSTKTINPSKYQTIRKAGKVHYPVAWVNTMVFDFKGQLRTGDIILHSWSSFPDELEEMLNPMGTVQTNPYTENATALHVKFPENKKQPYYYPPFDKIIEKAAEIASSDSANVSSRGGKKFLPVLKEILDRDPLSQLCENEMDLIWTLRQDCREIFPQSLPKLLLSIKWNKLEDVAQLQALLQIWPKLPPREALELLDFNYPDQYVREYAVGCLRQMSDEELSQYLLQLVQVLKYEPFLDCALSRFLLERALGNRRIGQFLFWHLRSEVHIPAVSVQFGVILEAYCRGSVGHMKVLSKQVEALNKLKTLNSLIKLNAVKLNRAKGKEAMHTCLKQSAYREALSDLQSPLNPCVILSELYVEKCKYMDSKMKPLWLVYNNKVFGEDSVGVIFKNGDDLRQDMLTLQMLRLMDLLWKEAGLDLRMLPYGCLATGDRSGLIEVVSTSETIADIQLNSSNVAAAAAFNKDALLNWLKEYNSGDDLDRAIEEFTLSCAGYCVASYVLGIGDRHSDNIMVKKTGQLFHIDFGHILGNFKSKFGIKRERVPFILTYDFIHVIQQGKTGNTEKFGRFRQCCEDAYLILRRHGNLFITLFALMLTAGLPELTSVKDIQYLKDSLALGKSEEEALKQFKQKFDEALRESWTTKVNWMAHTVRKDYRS
T2 sequence (P27986 whole entry partner): as the sequence (P27986 whole entry partner) above
T3 sequence (O00329 whole entry): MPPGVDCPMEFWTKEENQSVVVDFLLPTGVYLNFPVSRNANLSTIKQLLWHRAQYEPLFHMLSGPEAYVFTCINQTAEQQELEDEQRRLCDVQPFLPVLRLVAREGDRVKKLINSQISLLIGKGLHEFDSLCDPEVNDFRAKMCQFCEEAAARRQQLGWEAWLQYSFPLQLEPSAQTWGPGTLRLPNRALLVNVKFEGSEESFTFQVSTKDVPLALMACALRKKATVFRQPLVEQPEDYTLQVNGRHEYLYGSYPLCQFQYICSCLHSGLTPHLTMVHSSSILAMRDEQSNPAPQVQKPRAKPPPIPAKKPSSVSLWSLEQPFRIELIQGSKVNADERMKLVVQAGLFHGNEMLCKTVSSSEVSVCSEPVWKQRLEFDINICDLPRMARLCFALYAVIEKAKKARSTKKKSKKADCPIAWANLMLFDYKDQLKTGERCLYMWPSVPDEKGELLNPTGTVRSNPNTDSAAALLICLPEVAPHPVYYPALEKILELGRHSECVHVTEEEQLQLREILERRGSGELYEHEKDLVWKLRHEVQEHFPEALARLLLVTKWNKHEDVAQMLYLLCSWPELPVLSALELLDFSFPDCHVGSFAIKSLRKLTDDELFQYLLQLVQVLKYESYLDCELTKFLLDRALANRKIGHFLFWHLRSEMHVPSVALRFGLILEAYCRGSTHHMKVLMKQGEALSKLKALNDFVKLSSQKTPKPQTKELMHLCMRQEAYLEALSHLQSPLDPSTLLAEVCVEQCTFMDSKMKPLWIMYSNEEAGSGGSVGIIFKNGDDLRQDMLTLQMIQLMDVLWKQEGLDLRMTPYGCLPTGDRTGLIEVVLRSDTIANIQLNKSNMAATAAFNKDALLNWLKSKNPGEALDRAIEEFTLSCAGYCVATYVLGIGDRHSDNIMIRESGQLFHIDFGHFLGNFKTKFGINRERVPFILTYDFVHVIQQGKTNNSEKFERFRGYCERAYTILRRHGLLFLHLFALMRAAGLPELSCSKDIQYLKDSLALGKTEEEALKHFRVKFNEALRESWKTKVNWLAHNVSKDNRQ
T3 sequence (P27986 whole entry partner): as the sequence (P27986 whole entry partner) above
T4 sequence (P48736 whole entry): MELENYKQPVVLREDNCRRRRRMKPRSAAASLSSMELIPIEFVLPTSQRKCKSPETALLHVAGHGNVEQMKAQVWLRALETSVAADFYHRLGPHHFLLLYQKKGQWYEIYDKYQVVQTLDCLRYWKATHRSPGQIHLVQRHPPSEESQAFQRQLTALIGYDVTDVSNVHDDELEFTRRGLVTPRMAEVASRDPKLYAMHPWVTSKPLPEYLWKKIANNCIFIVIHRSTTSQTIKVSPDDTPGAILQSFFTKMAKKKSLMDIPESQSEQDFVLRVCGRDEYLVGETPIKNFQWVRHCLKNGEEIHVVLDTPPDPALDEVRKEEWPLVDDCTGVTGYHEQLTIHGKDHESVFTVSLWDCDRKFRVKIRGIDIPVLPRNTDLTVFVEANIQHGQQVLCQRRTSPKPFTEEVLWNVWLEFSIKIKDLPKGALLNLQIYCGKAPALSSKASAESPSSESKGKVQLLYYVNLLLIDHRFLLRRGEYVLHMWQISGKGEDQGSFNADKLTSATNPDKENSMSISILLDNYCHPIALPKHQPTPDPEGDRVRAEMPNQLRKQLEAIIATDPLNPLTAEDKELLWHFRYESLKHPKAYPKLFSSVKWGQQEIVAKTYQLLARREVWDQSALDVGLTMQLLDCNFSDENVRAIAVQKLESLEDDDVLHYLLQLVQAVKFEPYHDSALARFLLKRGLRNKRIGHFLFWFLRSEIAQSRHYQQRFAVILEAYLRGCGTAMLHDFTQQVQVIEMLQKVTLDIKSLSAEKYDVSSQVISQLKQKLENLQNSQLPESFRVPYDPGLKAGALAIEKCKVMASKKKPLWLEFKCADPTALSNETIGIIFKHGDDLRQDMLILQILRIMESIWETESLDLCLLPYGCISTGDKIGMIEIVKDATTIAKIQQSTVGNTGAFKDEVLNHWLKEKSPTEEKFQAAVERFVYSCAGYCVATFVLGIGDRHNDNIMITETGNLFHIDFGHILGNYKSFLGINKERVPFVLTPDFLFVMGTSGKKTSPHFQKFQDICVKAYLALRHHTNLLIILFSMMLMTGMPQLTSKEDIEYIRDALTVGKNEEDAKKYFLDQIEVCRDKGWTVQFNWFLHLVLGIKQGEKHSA

Structure (SMILES) | IC50 (PI3Kα) [nM] | IC50 (PI3Kβ) [nM] | IC50 (SU-DHL-5 lymphoma cells) [µM] | IC50 (PI3Kδ) [nM] | IC50 (PI3Kγ) [nM] | selectivity (PI3Kδ over the other PI3K subtypes), in words (PI3Kδ; PI3Kδ versus PI3Kα, PI3Kβ, PI3Kγ)
CCC(Nc1ncnc(N)c1C#N)c1c(-c2ccccc2)[nH]c2ccccc2c1=O (stereo not shown) [Example 13, 4-Amino-5-cyano-6-((1-(4-oxo-2-phenyl-1,4-dihydroquinolin-3-yl)propyl)amino)pyrimidine] | > 1000 | > 1000 | 1.11 | 5.8 | > 1000 | –
CC(Nc1nc(N)nc(N)c1C#N)c1c(-c2ccccc2)oc2c(Cl)cccc2c1=O (stereo not shown) [Example 6, 2,4-Diamino-5-cyano-6-(1-(8-chloro-4-oxo-2-phenyl-4H-chromen-3-yl)ethylamino)pyrimidine] | > 1000 | 881 | 1.23 | 9.5 | 84 | –
N#Cc1c(N)ncnc1NCc1c(-c2ccccc2)[nH]c2ccccc2c1=O [Example 15] | > 1000 | > 1000 | 4.94 | 21 | > 1000 | –
CC(Nc1ncnc(N)c1C#N)c1c(-c2ccccc2)oc2c(F)cccc2c1=O (stereo not shown) [Example 7, 4-Amino-5-cyano-6-(1-(8-fluoro-4-oxo-2-phenyl-4H-chromen-3-yl)ethylamino) pyrimidine] | > 1000 | > 1000 | 1.43 | 5 | > 1000 | –
CC(Nc1ncnc(N)c1C#N)c1c(-c2cc(F)cc(F)c2)c(=O)c2cc(F)ccc2n1C (stereo not shown) [Comparative Example 1, 4-Amino-5-cyano-6-(1-(3-(3,5-difluorophenyl)-6-fluoro-1-methyl-4-oxo-1,4-dihydroquinoline-2-yl)ethylamino)pyrimidine, reference compound] | – | – | – | 20 | – | poor
CC(Nc1ncnc(N)c1C#N)c1c(-c2cccc(F)c2)n(C)c2ccccc2c1=O (stereo not shown) [Example 26, 4-Amino-5-cyano-6-((1-(1-methyl-4-oxo-2-(3-fluorophenyl)-1,4-dihydroquinolin-3-yl)ethyl)amino) pyrimidine] | > 1000 | 972 | – | 2.3 | 814 | –
CC(Nc1nc(N)nc(N)c1C#N)c1c(-c2ccccc2)oc2c(F)cccc2c1=O (stereo not shown) [Example 8, 2,4-Diamino-5-cyano-6-(1-(8-fluoro-4-oxo-2-phenyl-4H-chromen-3-yl)ethylamino) pyrimidine] | > 1000 | 385 | 1.02 | 6.6 | 134 | –
CC(Nc1nc(N)nc(N)c1C#N)c1c(-c2ccccc2)[nH]c2ccccc2c1=O (stereo not shown) [Example 22, 2,4-Diamino-5-cyano-6-((1-(4-oxo-2-phenyl-1,4-dihydroquinolin-3-yl)ethyl)amino)pyrimidine] | 675 | 635 | – | 11 | 60 | –
CCC(Nc1nc(N)nc(N)c1C#N)c1c(-c2ccccc2)oc2ccccc2c1=O (stereo not shown) [Example 32, 2,4-Diamino-5-cyano-6-(1-(4-oxo-2-phenyl-4H-chromen-3-yl)propylamino) pyrimidine] | > 1000 | > 1000 | – | 4.8 | 673 | –
CC(Nc1nc(N)nc(N)c1C#N)c1c(-c2ccccc2)n(C)c2c(Cl)cccc2c1=O (stereo not shown) [Example 27, 2,4-Diamino-5-cyano-6-((1-(8-chloro-1-methyl-4-oxo-2-phenyl-1,4-dihydroquinolin-3-yl)ethyl)amino)pyrimidine] | 39 | 38 | – | 1.4 | 11 | –
CC(Nc1nc(N)nc(N)c1C#N)c1c(-c2ccccc2)n(C)c2ccccc2c1=O (stereo not shown) [Example 25, 2,4-Diamino-5-cyano-6-((1-(1-methyl-4-oxo-2-phenyl-1,4-dihydroquinolin-3-yl)ethyl)amino) pyrimidine] | 127 | 113 | – | 1.8 | 21 | –
N#Cc1c(N)nc(N)nc1NCc1c(-c2ccccc2)[nH]c2c(Cl)cccc2c1=O [Example 18] | 336 | 99 | 3.4 | 2 | 61 | –
CC(Nc1nc(N)nc(N)c1C#N)c1c(-c2ccccc2)[nH]c2c(Cl)cccc2c1=O (stereo not shown) [Example 23, 2,4-Diamino-5-cyano-6-((1-(8-chloro-4-oxo-2-phenyl-1,4-dihydroquinolin-3-yl)ethyl)amino)pyrimidine] | 114 | 60 | – | 1.4 | 5.7 | –
CC(Nc1ncnc(N)c1C#N)c1c(-c2ccccc2)oc2c(Cl)cccc2c1=O (stereo not shown) [Example 5, 4-Amino-5-cyano-6-(1-(8-chloro-4-oxo-2-phenyl-4H-chromen-3-yl)ethylamino) pyrimidine] | > 1000 | > 1000 | 0.61 | 11 | > 1000 | –
CC(Nc1ncnc(N)c1C#N)c1c(-c2ccccc2)oc2ccccc2c1=O (stereo not shown) [Example 3, 4-Amino-5-cyano-6-(1-(4-oxo-2-phenyl-4H-chromen-3-yl)ethylamino) pyrimidine] | > 1000 | > 1000 | 0.86 | 17 | > 1000 | –
CC(Nc1ncnc(N)c1C#N)c1c(-c2ccccc2)[nH]c2c(Cl)cccc2c1=O (stereo not shown) [Example 9, 4-Amino-5-cyano-6-((1-(8-chloro-4-oxo-2-phenyl-1,4-dihydroquinolin-3-yl)ethyl)amino)pyrimidine] | 219 | 139 | 0.58 | 3.8 | 66 | –
CC(Nc1nc(N)nc(N)c1C#N)c1c(-c2cccc(F)c2)oc2ccccc2c1=O (stereo not shown) [Example 30, 2,4-Diamino-5-cyano-6-(1-(2-(3-fluorophenyl)-4-oxo-4H-chromen-3-yl)ethylamino) pyrimidine] | > 1000 | > 1000 | – | 3.6 | 155 | –
N#Cc1c(N)nc(N)nc1NCc1c(-c2ccccc2)oc2ccccc2c1=O [Example 2, 2,4-Diamino-5-cyano-6-(4-oxo-2-phenyl-4H-chromen-3-yl) methylaminopyrimidine] | – | – | – | 13.5 | – | –
